Literature values in patent publication US6543389B2, “Insecticidal pet collar” (Pfizer Inc., priority 2001, dated 2003).

Experiments:
alpha-2 adrenoceptor = settings: affected dogs, injected intramuscularly
ticks [1] = settings: collars as currently marketed, extruded matrix containing about 9% by weight of amitraz
ticks [2] = settings: as compared with fipronil

Compound | reversing effects of amitraz toxicosis (alpha-2 adrenoceptor) | duration of tick protection (ticks [1]) | effect on numbers of live feeding ticks, egg hatchability, and larval viability (ticks [2])
CCC1(c2c[nH]cn2)Cc2ccccc2C1 [atipamezole, 4-(2-ethyl-2,3-dihydro-1H-inden-2-yl)-1H-imidazole] | effective in reversing effects of amitraz toxicosis | – | –
Cc1ccc(N=CN(C)C=Nc2ccc(C)cc2C)c(C)c1 [Amitraz, 1,5-di-(2,4-dimethylphenyl)-3-methyl-1,3,5-triazapenta-1,4-diene] | – | about four | significantly greater effect
